Measurements from paper PMC7962978, “PSMA-D4 Radioligand for Targeted Therapy of Prostate Cancer: Synthesis, Characteristics and Preliminary Assessment of Biological Properties” (International Journal of Molecular Sciences, 2021).
Where two headings read alike, the source gives them in different places.

How the values were obtained:
[1] = Lipophilicity determination (logD), shake-flask method; assay type: physicochemical; settings: n-octanol / PBS pH 7.4, shake-flask
Protocol: The partition coefficient logD of the radioligands was determined by the shake-flask method. The solution of 10 to 50 MBq of radiolabeled PSMA ligands (D-4, 617, 11, I&T) in 1.0 mL of phosphate-buffered saline (PBS, pH 7.4) was added to 1.0 mL of presaturated n-octanol solution (n = 3). Vials were shaken vigorously for 10 min. To achieve quantitative phase separation, the vials were centrifuged at 1600 rpm for 5 min. The radioactivity concentration in a defined volume of both the aqueous and the organic phase in six replicates each was measured in a γ-counter (Wizard 1470, Wallac, Turku, Finland). The partition coefficient was calculated as the logarithm of the ratio between counts per minute (cpm) measured in the n-octanol phase to the PBS phase counts.

PSMA antigen [2] = molecular target: T1, PSMA antigen (Homo sapiens, UniProt Q04609); test: Competitive binding assay on LNCaP cell membranes with [^177Lu]Lu-PSMA-617 as radioligand; settings: radioligand [^177Lu]Lu-PSMA-617, 2 h incubation
T1 construct: PSMA antigen expressed on LNCaP cell membranes; endogenous in cells; host or cells: LNCaP cell membranes (PC3 membranes as PSMA-negative control)
Protocol: The half-maximal inhibitory concentration (IC50) of PSMA-D4 was determined in a competitive binding assay carried out on 96-well MuliScreen filter plates using LNCaP cell membranes (50 mcL) incubated with [^177Lu]Lu-PSMA-617 as a radioligand and ten different concentrations (2.4–9708 nM) of PSMA-D4. After 2 h incubation, plates were treated in the same way as in the saturation binding assay. The amount of bound radioactivity was measured in γ-counter. IC50 value was evaluated using GraphPad Prism software (Darmstadt, Germany).

[3] = test system: PC-3 PIP (PSMA positive) tumor-bearing mice; set-up: method as in PMID 28102507; settings: PC-3 PIP tumor, 2 h p.i.v., 1 nmol, BALB/c Nude mice; cited from earlier work
LNCaP tumor-bearing mice = settings: 1 h p.i.v., cited from earlier work
PSMA antigen [4] = molecular target: T1, PSMA antigen; test: Saturation radioligand binding assay on LNCaP (PSMA positive) and PC3 (PSMA negative) cell membranes; settings: for Kd: LNCaP cell membranes, 2 h, 37 °C; for Specific Binding: total binding on LNCaP minus non-specific binding on PC3 membranes
Protocol: The equilibrium constant (KD) was determined by a saturation binding experiment performed in PSMA positive LNCaP and PSMA negative PC3 cell membranes isolated according to the procedure developed by Fichna et al.. The 50 mcL of LNCaP and PC3 cell membranes were seeded on special MultiScreen™ 96 well filter plates (Merck, Warsaw, Poland) and incubated for 2 h with increasing concentration of [^177Lu]Lu-PSMA-D4, [^90Y]Y-PSMA-D4, and […] (0.016–194 nM) at 37 °C. After incubation, the unbound radiocomplexes were filtered under vacuum, and the membranes were washed twice using PBS. The filters containing membranes with the attached radiotracer were extruded into tubes using MultiScreen Multile Punch (Merck). The number of associated inhibitors was determined by measuring the radioactivity of squeezed filters using Wallac Wizard 1470 γ counter. The KD and Bmax were calculated by nonlinear regression using the GraphPad Prism statistic program.

LNCaP cells = test: Cell uptake (total binding) and internalization in LNCaP cells; assay type: cell-based, human; settings: 37 °C, 2 h
Protocol: To determine cell uptake and internalization of [^177Lu]Lu-PSMA-D4 and [^90Y]Y-PSMA-D4, LNCaP cells (5 × 10^5 cells well^−1) were incubated in un-supplemented RPMI 1640 medium with one concentration of tested radioligands on 12-well plates in 37 °C per 2 h. After the appropriate time, the medium was removed, and cells were washed twice using phosphate buffer saline (PBS, IITD PAN, Wroclaw, Poland). The cells were treated twice with 1 mL of 50 mM glycine in 0.1 M NaCl at a pH of 2.8 and incubated for 5 min at room temperature to collect extracellularly bound compound. The internalization was determined by measuring the radioactivity of 1mL of 1 M NaOH used for cell lysis. Total binding was calculated as a sum of the membrane and internalized fractions measured using Wallac Wizard 1470 γ counter. As a control, [^177Lu]Lu-PSMA-617 and [^68Ga]Ga-PSMA-11 were used.

mCRPC patients = test system: mCRPC patients; set-up: method as in PMID 32172798, PMID 31418764, PMID 32290196; settings: four clinical studies, approximately 150 mCRPC patients; cited from earlier work
PSMA = molecular target: PSMA; set-up: method as in earlier work; settings: ref 34 (Tönnesmann R et al.); cited from earlier work
[5] = 0.2 nmol, CD-1 nu/nu mice, ref 14
[6] = 0.2 nmol, CD-1 nu/nu mice, ref 37

T1 sequence (Q04609 whole entry): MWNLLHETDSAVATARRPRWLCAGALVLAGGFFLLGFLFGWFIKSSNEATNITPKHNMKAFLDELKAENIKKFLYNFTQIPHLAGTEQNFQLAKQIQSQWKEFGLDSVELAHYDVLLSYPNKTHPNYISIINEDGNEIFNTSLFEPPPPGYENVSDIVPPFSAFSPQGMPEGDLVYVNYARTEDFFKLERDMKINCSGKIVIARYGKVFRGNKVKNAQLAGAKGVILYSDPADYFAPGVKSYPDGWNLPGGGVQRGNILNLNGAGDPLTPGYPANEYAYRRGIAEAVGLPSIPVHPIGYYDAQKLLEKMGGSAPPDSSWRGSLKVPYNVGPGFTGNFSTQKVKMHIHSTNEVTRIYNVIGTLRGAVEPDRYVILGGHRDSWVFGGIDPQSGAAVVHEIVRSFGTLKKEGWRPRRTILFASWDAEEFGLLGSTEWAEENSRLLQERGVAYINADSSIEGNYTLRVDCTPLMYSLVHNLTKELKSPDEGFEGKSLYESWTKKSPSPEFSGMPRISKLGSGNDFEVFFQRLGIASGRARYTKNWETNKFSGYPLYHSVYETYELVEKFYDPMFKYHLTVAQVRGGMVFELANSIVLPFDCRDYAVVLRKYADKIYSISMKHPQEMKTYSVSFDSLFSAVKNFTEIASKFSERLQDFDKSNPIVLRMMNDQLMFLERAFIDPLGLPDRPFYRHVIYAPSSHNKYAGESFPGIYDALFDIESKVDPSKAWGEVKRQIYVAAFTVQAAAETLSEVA

SMILES: O=C([O-])CN1CCN(CC(=O)[O-])CCN(CC(=O)NCC2CCC(C(=O)NC(Cc3ccc4ccccc4c3)C(=O)NCCCCC(NC(=O)NC(CCC(=O)O)C(=O)O)C(=O)O)CC2)CCN(CC(=O)[O-])CC1.[90Y+3] (centres unmarked) [[^90Y]Y-PSMA-617]
- logD [1]: −5.08 ± 0.13

SMILES: O=C(O)CCC(NC(=O)NC(CCCCNC(=O)C(Cc1c[nH]c2ccccc12)NC(=O)C1CCC(CNC(=O)CN2CCN(CC(=O)O)CCN(CC(=O)O)CCN(CC(=O)O)CC2)CC1)C(=O)O)C(=O)O [PSMA-D4, Glu-CO-Lys-L-Trp-4-Amc-DOTA]
- IC50 (PSMA antigen [2]): 28.7 ± 5.2 nM

SMILES: O=C([O-])CN1CCN(CC(=O)[O-])CCN(CC(=O)NCC2CCC(C(=O)NC(Cc3ccc4ccccc4c3)C(=O)NCCCCC(NC(=O)NC(CCC(=O)O)C(=O)O)C(=O)O)CC2)CCN(CC(=O)[O-])CC1.[68Ga+3] (centres unmarked) [[^68Ga]Ga-PSMA-617]
- kidneys [3]: 3.48 ± 0.18 %ID g^−1
- spleen [3]: 0.91 ± 0.14 %ID g^−1
- tumor [3]: 55.8 ± 14.2 %ID g^−1

SMILES: O=C([O-])CC[C@H](NC(=O)N[C@@H](CCCCNC(=O)CCCCCCC(=O)NCCCC[C@@H](NC(=O)[C@@H](Cc1ccccc1)NC(=O)[C@@H](Cc1ccc(O)c(I)c1)NC(=O)CC[C@H](C(=O)[O-])N1CCN(CC(=O)[O-])CCN(CC(=O)[O-])CCN(CC(=O)[O-])CC1)C(=O)[O-])C(=O)[O-])C(=O)[O-].[177Lu+3].[H+].[H+].[H+].[H+].[H+] [[^177Lu]Lu-PSMA-I&T]
- kidneys (LNCaP tumor-bearing mice; [5]): 107.24 ± 15.61 %ID g^−1
- spleen (LNCaP tumor-bearing mice; [5]): 5.85 ± 2.26 %ID g^−1
- tumor (LNCaP tumor-bearing mice; [5]): 7.96 ± 1.76 %ID g^−1
- kidneys (LNCaP tumor-bearing mice; [6]): 105.3 ± 15.8 %ID g^−1
- spleen (LNCaP tumor-bearing mice; [6]): 7.9 ± 2.6 %ID g^−1
- tumor (LNCaP tumor-bearing mice; [6]): 8.0 ± 1.7 %ID g^−1
- Kd (PSMA antigen [4]): 5.1 ± 2.6 nM
- Specific Binding (PSMA antigen [4]): 97.1 ± 2.9%
- logD [1]: −4.47 ± 0.14

SMILES: O=C([O-])CN(CCN(CC(=O)[O-])Cc1cc(CCC(=O)NCCCCCC(=O)NCCCC[C@H](NC(=O)N[C@@H](CCC(=O)O)C(=O)O)C(=O)O)ccc1[O-])Cc1cc(CCC(=O)O)ccc1[O-].[68Ga+3].[OH3+] [[^68Ga]Ga-PSMA-11]
- tumor (LNCaP tumor-bearing mice; dose n.d., Nude mice): 7.28 ± 0.82 %ID g^−1
- kidneys [3]: 58.8 ± 7.62 %ID g^−1
- spleen [3]: 2.18 ± 0.38 %ID g^−1
- tumor [3]: 40.0 ± 2.55 %ID g^−1
- Internalization (LNCaP cells): 2.6%
- Total Binding (LNCaP cells): 13.1%
- Kd (PSMA antigen [4]): 11.4 ± 7.1 nM
- Specific Binding (PSMA antigen [4]): 96.8 ± 2.7%
- logD [1]: −3.46 ± 0.06

SMILES: O=C(O)CCc1ccc(O)c(CN(CCN(CC(=O)O)Cc2cc(CCC(=O)NCCCCCC(=O)NCCCC[C@H](NC(=O)N[C@@H](CCC(=O)O)C(=O)O)C(=O)O)ccc2O)CC(=O)O)c1 [PSMA-11, reference compound]
- IC50 (PSMA antigen [2]): 84.5 ± 26.5 nM
- Internalization (LNCaP cells): 2.6%

SMILES: O=C(O)CC[C@H](NC(=O)N[C@@H](CCCCNC(=O)CCCCCCC(=O)NCCCC[C@@H](NC(=O)[C@@H](Cc1ccccc1)NC(=O)[C@@H](Cc1ccc(O)c(I)c1)NC(=O)CCC(C(=O)O)N1CCN(CC(=O)O)CCN(CC(=O)O)CCN(CC(=O)O)CC1)C(=O)O)C(=O)O)C(=O)O (some centres unmarked) [PSMA-I&T, Glu-CO-Lys[(Sub)DLys-DPhe-DTyr(3I)-DOTAGA]]
- IC50 (PSMA antigen [2]): 61.1 ± 7.8 nM

SMILES: O=C([O-])CN1CCN(CC(=O)[O-])CCN(CC(=O)NCC2CCC(C(=O)NC(Cc3ccc4ccccc4c3)C(=O)NCCCCC(NC(=O)NC(CCC(=O)O)C(=O)O)C(=O)O)CC2)CCN(CC(=O)[O-])CC1.[225Ac+3] (centres unmarked) [PSMA-617 labeled with actinium-225]
- hematologic toxicity (mCRPC patients): extremely low hematologic toxicity
- patients with prostate-specific antigen (PSA) response in terms of PSA decline (mCRPC patients): ~90%

SMILES: O=C([O-])CN1CCN(CC(=O)[O-])CCN(CC(=O)NCC2CCC(C(=O)NC(Cc3ccc4ccccc4c3)C(=O)NCCCCC(NC(=O)NC(CCC(=O)O)C(=O)O)C(=O)O)CC2)CCN(CC(=O)[O-])CC1.[47Sc+3] (centres unmarked) [[^47Sc]Sc-PSMA-617]
- kidneys [3]: 5.97 ± 0.90 %ID g^−1
- spleen [3]: 0.81 ± 0.34 %ID g^−1
- tumor [3]: 46.7 ± 4.36 %ID g^−1

SMILES: O=C([O-])CN1CCN(CC(=O)[O-])CCN(CC(=O)NCC2CCC(C(=O)NC(Cc3ccc4ccccc4c3)C(=O)NCCCCC(NC(=O)NC(CCC(=O)O)C(=O)O)C(=O)O)CC2)CCN(CC(=O)[O-])CC1.[177Lu+3] (centres unmarked) [[^177Lu]Lu-PSMA-617]
- kidneys [3]: 3.97 ± 0.56 %ID g^−1
- spleen [3]: 0.21 ± 0.03 %ID g^−1
- tumor [3]: 45.8 ± 4.02 %ID g^−1
- Internalization (LNCaP cells): 35.4–38.9%
- Total Binding (LNCaP cells): 10.2–16.8%
- Internalization (LNCaP cells; listed as [^177Lu]Lu-PSMA 617): 38.9 ± 1.7%
- Total Binding (LNCaP cells; listed as [^177Lu]Lu-PSMA 617): 12.8 ± 1.0%
- Kd (PSMA): 2 ± 0.3 nM
- logD [1]: −5.12 ± 0.07

SMILES: O=C(O)CC[C@H](NC(=O)N[C@@H](CCCCNC(=O)[C@H](Cc1ccc2ccccc2c1)NC(=O)[C@H]1CC[C@H](CNC(=O)CN2CCN(CC(=O)O)CCN(CC(=O)O)CCN(CC(=O)O)CC2)CC1)C(=O)O)C(=O)O [PSMA-617, Glu-CO-Lys-2-naphthyl-L-Ala-cyclohexane-DOTA]
- IC50 (PSMA): 2.7 ± 0.1 nM
